# Source: patent publication US20220288277A1, “SURFACE COATINGS AND IMPLANTABLE DEVICES COMPRISING DIMERIC STEROID PRODRUGS, AND USES THEREOF” (Ripple Therapeutics Corporation, priority 2019, published 2022)
# Tests used:
# [1] = tested on: device related fibrosis; assay: Rat study of coated polymeric discs, collagenous capsule wall thickness (Masson's Trichrome); format: in vivo, female Wistar rats; conditions: drop coated discs, subcutaneous, day 7 and day 21, versus non-coated implants
# Excerpt: The coatings were dried at ambient conditions over night and sterilized using Ethylene oxide (ETO) gas. Coated substrates were then implanted into the dorsal subcutaneous space in female Wistar rats with starting weights of 250-290 g. Animals were euthanized at day 7 (inflammatory phase) and day 21 (fibrotic phase) to assess the tissue response to coated versus non-coated implants. The thickness of the collagenous capsule wall surrounding the implant was quantified by morphometric image analysis on cross-section of excised capsules with associated tissue that were stained with Masson's Trichrome.
# [2] = Drug release from coated surfaces and extruded cylinders in PBS at 37 C, monitored by HPLC; format: physicochemical
# Excerpt: As stated herein, “t50” is the time at which 50% of the releasable drug has been released from a surface coating or drug depot of the disclosure. Time t10 is, correspondingly, the time at which 10% of the releasable drug has been released from a surface coating or drug depot of the disclosure. When the release curve is perfectly linear, t10=⅕ of t50. When there is an initial burst of released drug, t10 is much less than ⅕ of t50. In the compositions and methods of the disclosure t10 can be equal to or greater than 1/10 of t50. Drug release from a surface coating, drug depot, or compound of the disclosure can be measured at 37° C. in 100% bovine serum, or at 37° C. in PBS (phosphate buffered saline), as described in Example 1.
# Different substrates including poly(styrene-block-isobutylene-block-styrene) (SIBS) films, titanium coupons, and fibrous Dacron (polyethylene terephthalate) meshes (FIG. 2A) were coated with compound 1 from acetone by drop coating (FIG. 2B) forming an amorphous (glassy) coating. […] The bottom of a glass vial was coated with compound 1 and dexamethasone from dichloromethane (DCM) using the drop coating method.
# Compound 2 was dissolved in DCM and was drop coated onto the bottom of a glass vial and solvent was evaporated to form the surface coating. Drug release was carried out in PBS at 37 C with buffer changes and was monitored by HPLC.
# Compound 3 was dissolved in DCM and was drop coated onto the bottom of a glass vial and solvent was evaporated to form the surface coating. Drug release was carried out in PBS at 37 C with buffer changes and was monitored by HPLC.
# Compound 1 was formed into cylinders by heat extrusion from the intermediate glassy state by pre-melting compound 1 prior to extrusion. In vitro drug release was carried out in PBS at 37 C and drug release was quantified by HPLC. […] The cylinders can be used as a drug depot within a medical device or injected adjacent to the medical device to release dexamethasone.
# [3] = Drug release profiles of heat press versus spray coated surface coatings; format: physicochemical; conditions: similar drug densities (8.2-8.3 μg/mm^2)
# Protocol: Drug release profiles from Compound 1 surface coatings with similar drug densities (8.2-8.3 μg/mm^2) formed from the heat press process and spray coating process were similar (FIG. 16B), confirming that drug release is a material property and not influenced by coating technique.
# [4] = tested on: device related foreign body reaction in the rat subcutaneous model; assay: Rat study of coated substrates, morphometric image analysis of CD68 stained cross-sections; format: in vivo, female Wistar rats; conditions: spray coated thin films or drop coated discs, days 3 and 7, compared to non-coated substrates
# Protocol: Compound 1 was dissolved in acetone and spray coated onto thin films of a polymeric substrate or drop coated onto discs of a different polymeric substrate. Both coatings were dried at ambient conditions over night and sterilized using Ethylene oxide (ETO) gas. Coated substrates were then implanted into the dorsal subcutaneous space in female Wistar rats with starting weights of 250-290 g. Animals were euthanized at the peak of inflammatory phase in days 3 and 7. The cells in the surrounding area of both substrates were assessed by morphometric image analysis on cross-section of excised substrates with associated tissue that were stained for CD68 (inflammatory cell marker), ASMA (fibroblast marker) and DAPI ([…]). The number of recruited CD68 positive cells were reduced in response to both substrates coated with compound 1 compared to non-coated substrates. Thus, compound 1 suppresses inflammation in device related foreign body reaction and fibrosis in the rat subcutaneous model regardless of coating method or substrate.
# [5] = Drug release from injectable cylinders in the subcutaneous tissue of rats; format: in vivo, male Sprague Dawley rats; conditions: cylinders 23G-32G, 2 mm, subcutaneous with suture, 7 and 28 days
# Protocol: Cylinders of Compound 1 in various diameters (23G-32G) and 2 mm in length were processed as described in Example 1 and were loaded into needles with a piece of medical sutures as shown in FIG. 21A. The loaded needles were sterilized by ethylene oxide gas. The cylinders and sutures were injected into the dorsal subcutaneous space of male Sprague Dawley rats with starting weights of 100-124 g (Envigo, Frederick, Md. USA). Animals were euthanized at 7 and 28 days and the skin surrounding the injection sites were dissected. Pellet drug content at each time point was calculated from in-situ image analysis, confirmed by HPLC, and was plotted as cumulative drug release from the cylinders (FIG. 21C).
# [6] = tested on: skin surrounding the injection sites; assay: Rat study with spray coated substrates injected into the dorsal subcutaneous space; format: in vivo, male SD rats; conditions: highest coating amount (23.3 μg dexamethasone), day 14
# Protocol: Coatings of Compound 1 in various dexamethasone amounts (1.4-23.3 μg) were spray coated onto substrates as described in Example 4 and sterilized by ETO gas. Coated substrates were injected into the dorsal subcutaneous space of male SD rats with starting weights of 100-124 g (Envigo, Frederick, Md. USA). Animals were euthanized at 0, 3, 7 and 14 days and the skin surrounding the injection sites dissected. Coating remaining at each time point was quantified by HPLC.
# [7] = In vitro drug release profiles from coated discs; format: physicochemical; conditions: coated discs (FIG. 18B)
# [8] = Ethylene oxide (ETO) gas sterilization of coated fibrous Dacron meshes, purity and drug release pre- and post-ETO; format: physicochemical; conditions: ETO gas at 55° C.
# Protocol: Compound 1 coated onto fibrous Dacron meshes were sterilized by ethylene oxide (ETO) gas at a temperature of 55° C. […] Drug release was carried out in PBS at 37 C.
# [9] = Coating retention / drug release from coated substrates in 100% FBS at 37 C, HPLC; format: physicochemical
# Protocol: Compound 1 was drop coated with the same total amount of compound 1 from an organic solution (acetone) onto SIBS films, Dacron films, and fibrous Dacron meshes, and drug release was carried out in 100% FBS at 37 C. The coating was extracted from the substrates at different time points and was plotted as a percentage of coating retained over time (FIG. 4).
# Substrates coated with Compound 1 by drop coating or spray coating were incubated in fetal bovine serum (FBS) to determine the amount of Compound 1 retained over time. Each coated substrate was placed in a glass vial containing 4 mL FBS and incubated at 37° C. on a rotating platform. After 1 to 4 days, the remaining coating was extracted and was determined by HPLC (FIG. 9). The amount of Compound 1 retained following 1-day incubation in FBS ranged from 15 to 100% of the initial amount loaded and roughly correlated with thickness (total loading) of the coating.
# Drug release was carried out in 100% FBS and agitation at 37 C with buffer changes and was monitored by HPLC.
Molecule,Capsule wall diameter (fibrotic layer thickness) [1],"Cumulative drug release from the coated surface ([2]; drop coated from DCM onto glass vial, PBS at 37 C with buffer changes)","Drug release profiles, heat press process versus spray coating process [3]",Number of recruited CD68 positive cells [4],Cumulative drug release from the cylinders in vivo [5],Skin observation around the coated substrate [6],"Drug release mechanism from extruded cylinders ([2]; cylinders extruded with 23G and 30G nozzles, PBS at 37 C)","Drug release from the coated surfaces ([2]; drop coated on SIBS, titanium, Dacron mesh, glass, PBS at 37 C)",In vitro drug release profile [7],"Coating purity pre- and post-ETO sterilization ([8]; fibrous Dacron meshes, HPLC)",Drug release pre- and post-ETO sterilization ([8]; release in PBS at 37 C),"Coating retained over time ([9]; drop coated on SIBS and Dacron films (thicker, lower surface area coating))","Coating retained over time ([9]; drop coated on fibrous Dacron mesh (thin, high surface area coating))"
dexamethasone-hexane-dexamethasone [Compound 4],statistically thinner,,,,,,,,,,,,
hydrocortisone-triethylene glycol-hydrocortisone [Compound 2],,consistent drug release,,,,,,,,,,,
"C[C@@H]1C[C@H]2[C@@H]3CCC4=CC(=O)C=C[C@]4(C)[C@@]3(F)[C@@H](O)C[C@]2(C)[C@@]1(O)C(=O)COC(=O)OCCOCCOCCOC(=O)OCC(=O)[C@@]1(O)[C@H](C)C[C@H]2[C@@H]3CCC4=CC(=O)C=C[C@]4(C)[C@@]3(F)[C@@H](O)C[C@@]21C [Compound 1, dexamethasone-triethylene glycol-dexamethasone]",statistically thinner,,similar,reduced,sustained dexamethasone release,Skin bleaching was noted,surface erosion,"slow, sustained drug release",sustained release,no changes,no changes in release properties,lower and longer sustained release,quick release of coating from the surface
